Like-named read-outs stand apart in the source and are kept apart here.
How the values were obtained:
[1] = test system: PD1-ss+10aa/Gaussia Luciferase; assay: Dox-Induced PD1-ss-Gluc Assay; format: cell-based; details: 24 hr Dox induction, 293FRT/TO cells, read-out: 24 hr Dox Inducible PD1ssGluc 293FRT/TO: Mean IC50
Procedure, shortened: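 Compounds were added in DMSO/media with doxycycline and incubated at 37 °C, 5% CO2, on 293 T-REx cells plated one day earlier. These cells stably express, under tetracycline-regulated control, a Gaussia luciferase fused to the PD1 signal peptide plus 10 residues. Structures drawn without stereochemistry were tested as stereoisomer mixtures.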

[2] = test system: TNFα-FL/Gaussia Luciferase; assay: Dox Induced TNFα-FL-Gluc Assay; format: cell-based; details: for IC50: 24 hr Dox induction, 293FRT/TO cells, read-out: 24 hr Dox Inducible TNFaFLGluc 293FRT/TO: Mean IC50; for 24 hr Dox Inducible TNFaFLGluc 293FRT/TO: TNF/PD1: ratio of TNFaFLGluc IC50 to PD1ssGluc IC50
Procedure, shortened: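 Doxycycline-inducible Gaussia luciferase-tagged full-length TNFα (1-233) was expressed in stable Flp-In 293 T-REx cells. Compounds were co-added with doxycycline and incubated at 37 °C, 5% CO2.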

[3] = test system: HER3-ss+4aa/Gaussia Luciferase; assay: Dox-Induced Her3-ss-Gluc Assay; format: cell-based; details: 24 hr Dox induction, 293FRT/TO cells, read-out: 24 hr Dox Inducible Her3(ss + 4)Gluc 293FRT/TO: Mean IC50
Procedure, shortened: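 Reporter line: Flp-In 293 T-REx, T-REx-regulated HER3-ss+4aa fused to Gaussia luciferase. Compound co-added with doxycycline after overnight plating, 37° C., 5% CO2.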

[4] = test system: IL-2-FL/Gaussia Luciferase; assay: Dox Induced IL2-FL-Gluc Assay; format: cell-based; details: for IC50: 24 hr Dox induction, 293FRT/TO cells, read-out: 24 hr Dox Inducible IL2FLGluc 293FRT/TO: Mean IC50; for 24 hr Dox Inducible IL2FLGluc 293FRT/TO: IL2/PD1: ratio of IL2FLGluc IC50 to PD1ssGluc IC50
Procedure, shortened: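 Doxycycline induces an IL-2(1-153)–Gaussia luciferase fusion in a stable Flp-In 293 T-REx line. Compound exposure runs alongside induction at 37° C.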

[5] = test system: multiple myeloma cell line NCI-H929; assay: H929 Cell Viability Assay; format: cell-based, human; details: Homo sapiens, NCI-H929, 48 h, NCI-H929 cells, Celltiter-Glo
Procedure, shortened: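 Viability is scored by CellTiter-Glo luminescence following a 48-hour treatment at 37° C. Data for structures shown without stereochemistry refer to stereoisomer mixtures.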

[6] = test system: multiple myeloma cell line U266B1; assay: U266 Cell Viability Assay; format: cell-based, human; details: Homo sapiens, U-266, 48 h, U266B1 cells, Celltiter-Glo
Procedure, shortened: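 Viability is measured as luciferase signal from CellTiter-Glo following a 48-hour incubation with compound at 37° C. under 5% CO2. Where structures lack drawn stereochemistry, values refer to stereoisomer mixtures.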

[7] = Liver Microsome Stability Assay (rat); details: rat liver microsomes, with NADPH, 1.0 uM compound
Description: (§1) Stability of a compound was assessed in the presence of liver microsomes from various sources—mouse, rat, monkey and human liver microsomes. 1.0 uM compound, 0.4% DMSO in 0.1 M Potassium Phosphate with 1.0 mg/mL liver microsomes, were incubated at 37° C. with or without 1 mM NADPH. The samples were quenched at 0, and 30 minutes.

[8] = Liver Microsome Stability Assay (mouse); details: mouse liver microsomes, with NADPH, 1.0 uM compound
Description: as §1

[9] = Liver Microsome Stability Assay (human); details: human liver microsomes, with NADPH, 1.0 uM compound
Description: as §1

[10] = Liver Microsome Stability Assay (monkey); details: monkey liver microsomes, with NADPH, 1.0 uM compound
Description: as §1

[11] = '<=>' given where both are I.A.

Compound	IC50 ([1]; mean) [nM]	IC50 ([2]; mean) [nM]	IC50 ([3]; mean) [µM]	IC50 ([4]; mean) [µM]	24 hr Dox Inducible IL2FLGluc 293FRT/TO: IL2/PD1 [4, 11]	EC50 [5] [µM]	EC50 [6] [µM]	Liver Microsome Stability (Multiple Species): Rat - % Remaining after 30 min w/NADPH [7] [%]	Liver Microsome Stability (Multiple Species): Mouse - % Remaining after 30 min w/NADPH [8] [%]	Liver Microsome Stability (Multiple Species): Human - % Remaining after 30 min w/NADPH [9] [%]	Liver Microsome Stability (Multiple Species): Monkey - % Remaining after 30 min w/NADPH [10] [%]	IC50 [1] [nM]	IC50 [2] [nM]	24 hr Dox Inducible TNFaFLGluc 293FRT/TO: TNF/PD1 [2]	IC50 [3] [µM]	IC50 [4] [µM]	24 hr Dox Inducible IL2FLGluc 293FRT/TO: IL2/PD1 [4]	24 hr Dox Inducible TNFaFLGluc 293FRT/TO: TNF/PD1 [2, 11]
O=C(O)CCCn1cccc1C(=O)Nc1nc([C@H]2CCCN2c2ccccc2)cs1 [Compound C13]	> 25000	> 25000	> 25	> 25	1	> 25	> 25	87.9	64.9	82.1	81.3							
CN(C)S(=O)(=O)N1CC(Oc2ccc(N3CCC[C@@H]3c3csc(NC(=O)c4cccn4Cc4ccnc(F)c4)n3)cc2)C1 [Compound A148, (R)-N-(4-(1-(4-((1-(N,N-dimethylsulfamoyl)azetidin-3-yl)oxy)phenyl)pyrrolidin-2-yl)thiazol-2-yl)-1-((2-fluoropyridin-4-yl)methyl)-1H-pyrrole-2-carboxamide]						1.66	11.1	28.3	4.79	7.55	0.84	45.9	579	12.6	0.073	0.0872	1.9	
CC(C)n1cnc(/C=C/c2csc(NC(=O)c3cccn3CC3CCOCC3)n2)c1 [Compound D7, (E)-N-(4-(2-(1-isopropyl-1H-imidazol-4-yl)vinyl)thiazol-2-yl)-1-((tetrahydro-2H-pyran-4-yl)methyl)-1H-pyrrole-2-carboxamide]	2830	> 25000	> 25	> 25	>8.8	> 25	> 25	2.55	0.56	0.04	0.07							>8.84
C[C@H](N)c1ccc(N2CCC[C@@H]2c2csc(NC(=O)c3cccn3Cc3ccnc(F)c3)n2)cc1 [Compound A74, N-(4-((R)-1-(4-((S)-1-aminoethyl)phenyl)pyrrolidin-2-yl)thiazol-2-yl)-1-((2-fluoropyridin-4-yl)methyl)-1H-pyrrole-2-carboxamide]						3.87	6.13	98.3	94.3	38.6	38.5	118	2800	23.7	0.232	0.367	3.1	
O=C(Nc1nc(/C=C/c2cn(CCO)cn2)cs1)c1cccn1Cc1ccncc1 [Compound C114, (E)-N-(4-(2-(1-(2-hydroxyethyl)-1H-imidazol-4-yl)vinyl)thiazol-2-yl)-1-(pyridin-4-ylmethyl)-1H-pyrrole-2-carboxamide]	6900	> 25000	> 25	> 25	>3.6	> 25	> 25	19.2	15.2	0.67	0.22							>3.62
CNC(=O)N1CC(Oc2ccc(N3CCC[C@@H]3c3csc(NC(=O)c4cccn4Cc4ccnc(F)c4)n3)cc2)C1 [Compound A125, (R)-1-((2-fluoropyridin-4-yl)methyl)-N-(4-(1-(4-((1-(methylcarbamoyl)azetidin-3-yl)oxy)phenyl)pyrrolidin-2-yl)thiazol-2-yl)-1H-pyrrole-2-carboxamide]						1.21	> 25	24.9	45.1	26.2	10.1	22.5	322	14.3	0.0286	0.065	2.9	
Cc1nc(CCc2csc(NC(=O)c3cccn3Cc3ccncc3)n2)co1 [Compound E4]	439	> 25000	5.08	5.2	12	> 25	> 25	0.19	0.27	0.12	0.14							>57.0
N#CC1CC1Cn1cccc1C(=O)Nc1nc([C@H]2CCCN2c2ccccc2)cs1 (stereo partly drawn) [Compound C6, 1-((2-cyanocyclopropyl)methyl)-N-(4-((R)-1-phenylpyrrolidin-2-yl)thiazol-2-yl)-1H-pyrrole-2-carboxamide]	2600	> 25000	5.22	7.29	2.8	11.8	15.3	8.19	31.1	32.8	7.86							>9.60

Source: patent publication US20230286973A1, “PROTEIN SECRETION INHIBITORS” (KEZAR LIFE SCIENCES, priority 2020, published 2023)
